Reference: PubChem BioAssay AID2060498 (Molecular Pharmacology Branch, DTP, NCI, 2025)

System: 171881-019-R-J1-PDC tumor spheroids, viability
Test: Anticancer human tumor 171881-019-R-J1-PDC patient-derived invasive breast carcinoma cell line growth inhibition [GQUAD]
Details: spheroids with HUVEC and MSC; for IC50: curve of first compound; for viability, T/C: stronger effect = lower value
Summary of the method: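 Tumor cells were grown as complex spheroids with HUVEC endothelial cells and mesenchymal stem cells as stroma. G-quadruplex stabilizers were combined with targeted agents over half-log dilutions from near the clinical Cmax, or from 10 microM.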

[1] = second compound 0.0316 µM, first compound 0.0316 µM
[2] = second compound 0.0316 µM, first compound 0.1 µM
[3] = second compound 0.0316 µM, first compound 0.316 µM
[4] = second compound 0.0316 µM, first compound 1 µM
[5] = second compound 0.0316 µM, first compound 3.16 µM
[6] = second compound 0.0316 µM, first compound 10 µM
[7] = second compound 0.1 µM, first compound 0.0316 µM
[8] = second compound 0.1 µM, first compound 0.1 µM
[9] = second compound 0.1 µM, first compound 0.316 µM
[10] = second compound 0.1 µM, first compound 1 µM
[11] = second compound 0.1 µM, first compound 3.16 µM
[12] = second compound 0.1 µM, first compound 10 µM
[13] = second compound 0.316 µM, first compound 0.0316 µM
[14] = second compound 0.316 µM, first compound 0.1 µM
[15] = second compound 0.316 µM, first compound 0.316 µM
[16] = second compound 0.316 µM, first compound 1 µM
[17] = second compound 0.316 µM, first compound 3.16 µM
[18] = second compound 0.316 µM, first compound 10 µM
[19] = second compound 1 µM, first compound 0.0316 µM
[20] = second compound 1 µM, first compound 0.1 µM
[21] = second compound 1 µM, first compound 0.316 µM
[22] = second compound 1 µM, first compound 1 µM
[23] = second compound 1 µM, first compound 3.16 µM
[24] = second compound 1 µM, first compound 10 µM
[25] = second compound 3.16 µM, first compound 0.0316 µM
[26] = second compound 3.16 µM, first compound 0.1 µM
[27] = second compound 3.16 µM, first compound 0.316 µM
[28] = second compound 3.16 µM, first compound 1 µM
[29] = second compound 3.16 µM, first compound 3.16 µM
[30] = second compound 3.16 µM, first compound 10 µM
[31] = second compound 10 µM, first compound 0.0316 µM
[32] = second compound 10 µM, first compound 0.1 µM
[33] = second compound 10 µM, first compound 0.316 µM
[34] = second compound 10 µM, first compound 1 µM
[35] = second compound 10 µM, first compound 3.16 µM
[36] = second compound 10 µM, first compound 10 µM
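Note: spheroids exposed to compounds for 7 days.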
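Throughout, for viability, T/C: 100% = DMSO vehicle control viability.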

CC1COCCN1c1cc(C2(O)CC3CCC(C2)O3)c2cnn(-c3ccn[nH]3)c2n1 (centres undefined) + Cc1cnc(CNC(=O)c2c(=O)c3ccc(N4CCCN(C)CC4)nc3n3c2sc2ccccc23)cn1
IC50 (second compound 0.0316 µM): < 0.0316 µM | IC50 (second compound 0.1 µM): < 0.0316 µM | IC50 (second compound 0.316 µM): < 0.0316 µM | IC50 (second compound 1 µM): < 0.0316 µM | IC50 (second compound 3.16 µM): < 0.0316 µM | IC50 (second compound 10 µM): < 0.0316 µM | viability, T/C [1]: 33.7% | viability, T/C [2]: 16.5% | viability, T/C [3]: 9.78% | viability, T/C [4]: 5.45% | viability, T/C [5]: 4.11% | viability, T/C [6]: 2.67% | viability, T/C [7]: 33.8% | viability, T/C [8]: 17.1% | viability, T/C [9]: 9.54% | viability, T/C [10]: 5.51% | viability, T/C [11]: 4.25% | viability, T/C [12]: 3.04% | viability, T/C [13]: 34.8% | viability, T/C [14]: 21.1% | viability, T/C [15]: 10.6% | viability, T/C [16]: 5.81% | viability, T/C [17]: 4.2% | viability, T/C [18]: 3.15% | viability, T/C [19]: 35.5% | viability, T/C [20]: 22.2% | viability, T/C [21]: 13.5% | viability, T/C [22]: 6.47% | viability, T/C [23]: 4.91% | viability, T/C [24]: 2.51% | viability, T/C [25]: 44.8% | viability, T/C [26]: 27.9% | viability, T/C [27]: 16.4% | viability, T/C [28]: 6.87% | viability, T/C [29]: 4.24% | viability, T/C [30]: 0.23% | viability, T/C [31]: 43.3% | viability, T/C [32]: 31.1% | viability, T/C [33]: 15.4% | viability, T/C [34]: 7.69% | viability, T/C [35]: 3.95% | viability, T/C [36]: 0.2%

O=C(c1cc(Cc2n[nH]c(=O)c3ccccc23)ccc1F)N1CCN(C(=O)C2CC2)CC1 + Cc1cnc(CNC(=O)c2c(=O)c3ccc(N4CCCN(C)CC4)nc3n3c2sc2ccccc23)cn1
IC50 (second compound 0.0316 µM): > 10 µM | IC50 (second compound 0.1 µM): > 10 µM | IC50 (second compound 0.316 µM): > 10 µM | IC50 (second compound 1 µM): > 10 µM | IC50 (second compound 3.16 µM): > 10 µM | IC50 (second compound 10 µM): > 10 µM | viability, T/C [1]: 97.3% | viability, T/C [2]: 93.3% | viability, T/C [3]: 87% | viability, T/C [4]: 87.1% | viability, T/C [5]: 80.9% | viability, T/C [6]: 75.1% | viability, T/C [7]: 79.9% | viability, T/C [8]: 82.7% | viability, T/C [9]: 76.3% | viability, T/C [10]: 68.4% | viability, T/C [11]: 64.1% | viability, T/C [12]: 62% | viability, T/C [13]: 70.1% | viability, T/C [14]: 69.8% | viability, T/C [15]: 71.3% | viability, T/C [16]: 65% | viability, T/C [17]: 67.8% | viability, T/C [18]: 58.2% | viability, T/C [19]: 66.6% | viability, T/C [20]: 61.5% | viability, T/C [21]: 68.9% | viability, T/C [22]: 58.6% | viability, T/C [23]: 64.1% | viability, T/C [24]: 57.8% | viability, T/C [25]: 59.4% | viability, T/C [26]: 55.4% | viability, T/C [27]: 64.6% | viability, T/C [28]: 56.5% | viability, T/C [29]: 55.3% | viability, T/C [30]: 55.7% | viability, T/C [31]: 54.3% | viability, T/C [32]: 60.4% | viability, T/C [33]: 57.9% | viability, T/C [34]: 55.5% | viability, T/C [35]: 59.3% | viability, T/C [36]: 55.4%
